# Test results taken from patent publication US20030224034A1, “Personal care article and method for inhibiting attachment of yeast to skin” (priority 2002, published 2003).
# Tested on: Candida albicans (ATCC 10231)
# Test: Visual release protocol: inhibition of C. albicans attachment to skin (tape strips and cyanoacrylate skin pulls), fluorescence microscopy cell count
# Assay type: cell-based
# Conditions: for % Inhibition of yeast attachment / 90 View Total (number of yeast cells) / AVG per view (number of yeast cells): 2% farnesol in TSB, 60 minutes at 33 degrees Celsius; for % Inhibition of yeast attachment: 100-((sample # of cells)/(control # of cells)x100); for 90 View Total (number of yeast cells) / AVG per view (number of yeast cells): view = 6000 um^2
# Procedure: Candida albicans (ATCC 10231) was used in this study. C. albicans was sub-cultured onto a Sabourads medium fortified with glucose (SAB-Dex) agar plate (Becton Dickinson, Cockeysville, Md.) overnight at 37 degrees Celsius. The following day, 2-3 isolated C. albicans colonies were inoculated into 20 ml SAB-Dex broth and incubated overnight shaken at 220 rpm at 32 degrees Celsius for 18 hours. The broth culture was diluted to 1×10^5 CFU/ml with phosphate buffer (VWR Industries, Batavia, Ill.).
# The following protocol was used to measure the inhibition of C. albicans to skin (skin tape strips and cyanoacrylate skin pulls) by farnesol. Skin tape strips were made by pulling D-Squame skin sampling discs (CuDerm Corporation, Dallas, Tex.) four times from adjacent adult male volar forearm sites. Cyanoacrylate pulls were done by putting a small amount of super glue on the skin then placing a glass slide on the wetted surface. The glue was allowed to dry then the slide was removed, pulling off the stratum corneum. The tape strips and glue pulls (both will be referred to as strips in subsequent descriptions) were placed into deep six-well plates (Becton Dickinson, Franklin Lakes, N.J.). The strips were then blocked with 2.0 ml of 5% Bovine Serum Albumin (BSA) (Sigma, St. Louis, Mo.) in PBS buffer (150 mM NaCl, 50 mM Potassium Phosphate (KP), pH 7.4) for 60 minutes at 33 degrees Celsius while shaking at 220 rpm.
# Next, each well's fluid was removed and 1.0 ml (10^5 Colony Forming Units (CFU)/ml) C. albicans was added to each strip. Then, 1.0 ml of Trypticase Soy Broth (TSB) [Difco Labs, Detroit, Mich.] containing 2% farnesol (DRAGOCO, Totowa, N.J.) was added to each strip, and the plates incubated at 33 degrees Celsius for 60 minutes. The fluid was aspirated, and the strips were washed 3 times with 3.0 ml PBS. Both sides of each tape strip were washed with a stream of PBS then placed in fresh 6-well plates.
# Each strip was fixed by adding 2.0 ml of 2.5% Glutaraldehyde (Sigma Chemical, St. Louis, Mo.) to each of the wells of the 6-well plates for 10 minutes. The tape strips were then washed 3 times with 3.0 ml distilled water and stained by adding 0.5 ml Calcofluor White (Difco, Ann Arbor, Mich.) to the wells for 10 to 15 minutes. The tape strips were again washed 3 times with distilled water and then flooded with 2 ng/ml Nile Red (Sigma Chemical, St. Louis, Mo.) and allowed to air dry.
# Once the tape strips air-dried, the yeast cells were enumerated automatically utilizing a Nikon Eclipse TE 300 fluorescent microscope fitted with a DAPI excitation filter and a Triple Pass barrier filter (Tokyo, Japan). The counting procedure was automated (Table 1 and Table 2) through the use of MetaMorph (Universal Imaging, Dowingtown, Pa.) software such that each sample had 30 views. Each image view was a 6000 um^2. The total field of view was approximately 25% of the total tape strip and 75% of the cyanoacrylate pull. The percent inhibition was calculated as follows: 100-((sample # of cells)/(control # of cells)×100). Approximately 10^4 yeast cells bound to a 22-mm diameter D-Squame tape strip under these conditions.
# [1] = Cyanoacrylate pull of human volar forearm skin
# [2] = Tape strip of human volar forearm skin
structure (smiles),measurement,setting,value
"CC(C)=CCCC(C)=CCCC(C)=CCO [Farnesol, 3,7,11-trimethyl-2,6,10-dodecatrien-1-ol]",% Inhibition of yeast attachment,[1],93.8%
same,% Inhibition of yeast attachment,"Cyanoacrylate pull of human volar forearm skin, listed as farnesol",94%
same,90 View Total (number of yeast cells),[1],955
same,AVG per view (number of yeast cells),[1],10.6
same,% Inhibition of yeast attachment,[2],63.8%
same,% Inhibition of yeast attachment,"Tape strip of human volar forearm skin, listed as farnesol",64%
same,90 View Total (number of yeast cells),[2],6963
same,AVG per view (number of yeast cells),[2],77.4
same,inhibition of the attachment of yeast to skin (in words),farnesol at a concentration of 2%,effectively inhibit the attachment of yeast to skin
